Measured values from ChEMBL document CHEMBL1201862, “PubChem BioAssay data set” (2004).
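Step 1: Grow cells in 96-well plates. Step 2: Expose to compound for 48 hours at 5 concentrations. Step 3: Interpolate endpoints linearly; if unreached, use highest concentration. GI50 marks 50% less growth.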 The source made the active and inactive calls. No stated cut-off is given here; in the data, active = GI50 up to about 1.1 µM and inactive = higher.

Key:
Test in all cases: inhibition of tumour cell growth, NCI panel, 48 h
[1] = system: 786-0
[2] = system: A498
[3] = system: A549
[4] = system: ACHN
[5] = system: BT-549
[6] = system: CAKI-1
[7] = system: CCRF-CEM
[8] = system: COLO 205
[9] = system: DU-145
[10] = system: EKVX
[11] = system: HCT-116
[12] = system: HCT-15
[13] = system: HL-60
[14] = system: HT-29
[15] = system: Hs-578T
[16] = system: IGROV-1
[17] = system: K562
[18] = system: KM12
[19] = system: M14
[20] = system: MDA-MB-231
[21] = system: MDA-MB-435
[22] = system: MDA-N
[23] = system: MOLT-4
[24] = system: Malme-3M
[25] = system: NCI-H226
[26] = system: NCI-H23
[27] = system: NCI-H460
[28] = system: NCI-H522
[29] = system: NCI/ADR-RES
[30] = system: OVCAR-4
[31] = system: OVCAR-5
[32] = system: OVCAR-8
[33] = system: PC-3
[34] = system: RPMI-8226
[35] = system: RXF 393
[36] = system: SF-268
[37] = system: SF-295
[38] = system: SF-539
[39] = system: SK-MEL-28
[40] = system: SK-MEL-2
[41] = system: SK-MEL-5
[42] = system: SK-OV-3
[43] = system: SN12C
[44] = system: SNB-19
[45] = system: SNB-75
[46] = system: SR
[47] = system: SW-620
[48] = system: T47D
[49] = system: TK-10
[50] = system: U-251
[51] = system: UACC-257
[52] = system: UACC-62
[53] = system: UO-31

Measured: GI50

N#Cc1c(-c2ccccc2)c(C=O)c(=O)n2c1[nH]c1ccccc12
inactive: [1] > 100 µM | [2] 26.1 µM | [3] > 100 µM | [4] 78.3 µM | [5] 39.1 µM | [6] > 100 µM | [7] 17.6 µM | [8] 53.1 µM | [9] > 100 µM | [10] > 100 µM | [11] 82.4 µM | [13] 56.9 µM | [14] 92 µM | [15] 31.3 µM | [16] > 100 µM | [17] 67 µM | [18] 60.1 µM | [19] 97.5 µM | [20] 38.2 µM | [21] 67.1 µM | [22] 84.3 µM | [23] 33.7 µM | [24] > 100 µM | [25] 55.6 µM | [26] 61.7 µM | [27] > 100 µM | [28] 55.6 µM | [29] > 100 µM | [30] 20.5 µM | [31] > 100 µM | [32] > 100 µM | [33] > 100 µM | [34] 63.2 µM | [35] 42.5 µM | [36] 65.9 µM | [37] > 100 µM | [38] 77.1 µM | [39] 23.9 µM | [40] 33 µM | [41] > 100 µM | [42] > 100 µM | [43] 45.3 µM | [44] 50.7 µM | [45] 22.1 µM | [46] 67.6 µM | [47] 42.6 µM | [48] 65.9 µM | [49] 77.3 µM | [50] 50.8 µM | [51] > 100 µM | [52] 40.7 µM | [53] 40.6 µM
70 µM: [12]
